Data from ChEMBL document CHEMBL3797190, “Development of 3,5-Dinitrobenzylsulfanyl-1,3,4-oxadiazoles and Thiadiazoles as Selective Antitubercular Agents Active Against Replicating and Nonreplicating Mycobacterium tuberculosis” (J Med Chem, 2016).
Converted amounts (≈) assume the structure as drawn.

Key:
Format in all cases: functional
[1] = system: Mycobacterium kansasii; assay: Antimycobacterial activity against Mycobacterium kansasii CNCTC My 6509/96 after 14 days by microdilution method; conditions: CNCTC My 6509/96, 336 h
[2] = system: Mycobacterium avium; assay: Antimycobacterial activity against Mycobacterium avium CNCTC My 330/88 after 14 days by microdilution method; conditions: CNCTC My 330/88, 336 h
[3] = system: Mycobacterium avium; assay: Antimycobacterial activity against Mycobacterium avium CNCTC My 330/88 after 21 days by microdilution method; conditions: CNCTC My 330/88, 504 h
[4] = system: Mycobacterium kansasii; assay: Antimycobacterial activity against Mycobacterium kansasii CNCTC My 6509/96 after 21 days by microdilution method; conditions: CNCTC My 6509/96, 504 h
[5] = system: Mycobacterium kansasii; assay: Antimycobacterial activity against Mycobacterium kansasii CNCTC My 6509/96 after 7 days by microdilution method; conditions: CNCTC My 6509/96, 168 h
[6] = system: Mycobacterium kansasii; assay: Antimycobacterial activity against Mycobacterium kansasii CNCTC My 235/80 after 7 days by microdilution method; conditions: CNCTC My 235/80, 168 h
[7] = system: Mycobacterium kansasii; assay: Antimycobacterial activity against Mycobacterium kansasii CNCTC My 235/80 after 21 days by microdilution method; conditions: CNCTC My 235/80, 504 h
[8] = system: Mycobacterium kansasii; assay: Antimycobacterial activity against Mycobacterium kansasii CNCTC My 235/80 after 14 days by microdilution method; conditions: CNCTC My 235/80, 336 h
[9] = system: Mycobacterium tuberculosis; assay: Antimycobacterial activity against Mycobacterium tuberculosis CNCTC My 331/88 after 21 days by microdilution method; conditions: CNCTC My 331/88, 504 h
[10] = system: Mycobacterium tuberculosis; assay: Antimycobacterial activity against Mycobacterium tuberculosis CNCTC My 331/88 after 14 days by microdilution method; conditions: CNCTC My 331/88, 336 h

Compound	MIC99 [1]	MIC99 [2]	MIC99 [3]	MIC99 [4]	MIC99 [5]	MIC99 [6]	MIC99 [7]	MIC99 [8]	MIC99 [9]	MIC99 [10]
NNC(=O)c1ccncc1 [ISONIAZID]	4 µM (≈ 0.549 µg/mL)	> 250 µM	> 250 µM	4 µM (≈ 0.549 µg/mL)	4 µM (≈ 0.549 µg/mL)	> 250 µM	> 250 µM	> 250 µM	–	–
O=[N+]([O-])c1cc(CSc2nnc(-c3ccc(Cl)cc3)s2)cc(C(F)(F)F)c1	> 32 µM	> 500 µM	> 500 µM	> 32 µM	> 32 µM	> 32 µM	> 32 µM	> 32 µM	> 32 µM	> 32 µM
O=[N+]([O-])c1cc(CSc2nnc(C3CCCCC3)o2)cc([N+](=O)[O-])c1	–	–	–	–	–	–	–	–	≤ 0.03 µM	≤ 0.03 µM
O=[N+]([O-])c1cc(CSc2nnc(-c3ccc(O)cc3)o2)cc([N+](=O)[O-])c1	8 µM (≈ 2.99 µg/mL)	62 µM (≈ 23.2 µg/mL)	62 µM (≈ 23.2 µg/mL)	16 µM (≈ 5.99 µg/mL)	4 µM (≈ 1.5 µg/mL)	4 µM (≈ 1.5 µg/mL)	16 µM (≈ 5.99 µg/mL)	8 µM (≈ 2.99 µg/mL)	1 µM (≈ 0.374 µg/mL)	1 µM (≈ 0.374 µg/mL)
Nc1cc(CSc2nnc(-c3ccc([N+](=O)[O-])cc3)s2)cc([N+](=O)[O-])c1	250 µM (≈ 97.4 µg/mL)	250 µM (≈ 97.4 µg/mL)	250 µM (≈ 97.4 µg/mL)	250 µM (≈ 97.4 µg/mL)	250 µM (≈ 97.4 µg/mL)	250 µM (≈ 97.4 µg/mL)	250 µM (≈ 97.4 µg/mL)	250 µM (≈ 97.4 µg/mL)	125 µM (≈ 48.7 µg/mL)	125 µM (≈ 48.7 µg/mL)
O=[N+]([O-])c1ccc(CSc2nnc(-c3ccccc3)s2)c([N+](=O)[O-])c1	2 µM (≈ 0.749 µg/mL)	8 µM (≈ 3 µg/mL)	32 µM (≈ 12 µg/mL)	4 µM (≈ 1.5 µg/mL)	1 µM (≈ 0.374 µg/mL)	1 µM (≈ 0.374 µg/mL)	4 µM (≈ 1.5 µg/mL)	4 µM (≈ 1.5 µg/mL)	16 µM (≈ 5.99 µg/mL)	8 µM (≈ 3 µg/mL)
O=[N+]([O-])c1ccc(CSc2nnc(-c3ccncc3)o2)c([N+](=O)[O-])c1	32 µM (≈ 11.5 µg/mL)	62 µM (≈ 22.3 µg/mL)	62 µM (≈ 22.3 µg/mL)	32 µM (≈ 11.5 µg/mL)	32 µM (≈ 11.5 µg/mL)	16 µM (≈ 5.75 µg/mL)	32 µM (≈ 11.5 µg/mL)	32 µM (≈ 11.5 µg/mL)	8 µM (≈ 2.87 µg/mL)	8 µM (≈ 2.87 µg/mL)
Cc1ccc(-c2nnc(SCc3cc([N+](=O)[O-])cc(C(F)(F)F)c3)o2)cc1	> 32 µM	> 500 µM	> 500 µM	> 32 µM	> 32 µM	> 32 µM	> 32 µM	> 32 µM	> 32 µM	> 32 µM
COc1cc(OC)cc(-c2nnc(SCc3cc([N+](=O)[O-])cc([N+](=O)[O-])c3)o2)c1	0.5 µM (≈ 0.209 µg/mL)	16 µM (≈ 6.69 µg/mL)	16 µM (≈ 6.69 µg/mL)	1 µM (≈ 0.418 µg/mL)	0.125 µM (≈ 0.0523 µg/mL)	0.125 µM (≈ 0.0523 µg/mL)	0.5 µM (≈ 0.209 µg/mL)	0.25 µM (≈ 0.105 µg/mL)	0.125 µM (≈ 0.0523 µg/mL)	0.125 µM (≈ 0.0523 µg/mL)
Cc1cc(C)cc(-c2nnc(SCc3cc([N+](=O)[O-])cc([N+](=O)[O-])c3)s2)c1	0.5 µM (≈ 0.201 µg/mL)	> 16 µM	> 16 µM	0.5 µM (≈ 0.201 µg/mL)	0.25 µM (≈ 0.101 µg/mL)	0.25 µM (≈ 0.101 µg/mL)	1 µM (≈ 0.402 µg/mL)	1 µM (≈ 0.402 µg/mL)	0.125 µM (≈ 0.0503 µg/mL)	0.125 µM (≈ 0.0503 µg/mL)
O=[N+]([O-])c1ccc(-c2nnc(SCc3cc([N+](=O)[O-])cc(C(F)(F)F)c3)o2)cc1	32 µM (≈ 13.6 µg/mL)	> 500 µM	> 500 µM	32 µM (≈ 13.6 µg/mL)	16 µM (≈ 6.82 µg/mL)	16 µM (≈ 6.82 µg/mL)	32 µM (≈ 13.6 µg/mL)	32 µM (≈ 13.6 µg/mL)	32 µM (≈ 13.6 µg/mL)	32 µM (≈ 13.6 µg/mL)
O=[N+]([O-])c1ccc(-c2nnc(SCc3cc([N+](=O)[O-])cc(C(F)(F)F)c3)s2)cc1	> 32 µM	> 500 µM	> 500 µM	> 32 µM	> 32 µM	> 32 µM	> 32 µM	> 32 µM	> 32 µM	> 32 µM
Cc1nnc(SCc2cc([N+](=O)[O-])cc([N+](=O)[O-])c2)s1	8 µM (≈ 2.5 µg/mL)	125 µM (≈ 39 µg/mL)	125 µM (≈ 39 µg/mL)	16 µM (≈ 5 µg/mL)	8 µM (≈ 2.5 µg/mL)	4 µM (≈ 1.25 µg/mL)	8 µM (≈ 2.5 µg/mL)	4 µM (≈ 1.25 µg/mL)	4 µM (≈ 1.25 µg/mL)	4 µM (≈ 1.25 µg/mL)
Cc1cc(C)cc(-c2nnc(SCc3cc([N+](=O)[O-])cc([N+](=O)[O-])c3)o2)c1	1 µM (≈ 0.386 µg/mL)	> 32 µM	> 32 µM	2 µM (≈ 0.773 µg/mL)	0.5 µM (≈ 0.193 µg/mL)	0.25 µM (≈ 0.0966 µg/mL)	1 µM (≈ 0.386 µg/mL)	0.5 µM (≈ 0.193 µg/mL)	0.06 µM (≈ 0.0232 µg/mL)	0.06 µM (≈ 0.0232 µg/mL)
Nc1cc(N)cc(CSc2nnc(-c3ccc([N+](=O)[O-])cc3)s2)c1	250 µM (≈ 89.9 µg/mL)	250 µM (≈ 89.9 µg/mL)	250 µM (≈ 89.9 µg/mL)	250 µM (≈ 89.9 µg/mL)	250 µM (≈ 89.9 µg/mL)	250 µM (≈ 89.9 µg/mL)	250 µM (≈ 89.9 µg/mL)	250 µM (≈ 89.9 µg/mL)	250 µM (≈ 89.9 µg/mL)	250 µM (≈ 89.9 µg/mL)
O=[N+]([O-])c1cc(CSc2nnc(-c3ccncc3)s2)cc([N+](=O)[O-])c1	1 µM (≈ 0.375 µg/mL)	> 125 µM	> 125 µM	1 µM (≈ 0.375 µg/mL)	0.5 µM (≈ 0.188 µg/mL)	0.5 µM (≈ 0.188 µg/mL)	1 µM (≈ 0.375 µg/mL)	1 µM (≈ 0.375 µg/mL)	0.125 µM (≈ 0.0469 µg/mL)	0.125 µM (≈ 0.0469 µg/mL)
O=[N+]([O-])c1ccc(CSc2nnc(-c3ccc([N+](=O)[O-])cc3)o2)cc1	62 µM (≈ 22.2 µg/mL)	250 µM (≈ 89.6 µg/mL)	250 µM (≈ 89.6 µg/mL)	62 µM (≈ 22.2 µg/mL)	62 µM (≈ 22.2 µg/mL)	250 µM (≈ 89.6 µg/mL)	250 µM (≈ 89.6 µg/mL)	250 µM (≈ 89.6 µg/mL)	250 µM (≈ 89.6 µg/mL)	250 µM (≈ 89.6 µg/mL)
O=[N+]([O-])c1ccc(CSc2nnc(-c3ccc([N+](=O)[O-])cc3)s2)cc1	62 µM (≈ 23.2 µg/mL)	250 µM (≈ 93.6 µg/mL)	250 µM (≈ 93.6 µg/mL)	62 µM (≈ 23.2 µg/mL)	62 µM (≈ 23.2 µg/mL)	250 µM (≈ 93.6 µg/mL)	250 µM (≈ 93.6 µg/mL)	250 µM (≈ 93.6 µg/mL)	62 µM (≈ 23.2 µg/mL)	62 µM (≈ 23.2 µg/mL)
Cc1ccc(-c2nnc(SCc3cc([N+](=O)[O-])cc(C(F)(F)F)c3)s2)cc1	> 32 µM	> 500 µM	> 500 µM	> 32 µM	> 32 µM	> 32 µM	> 32 µM	> 32 µM	> 32 µM	> 32 µM
Cc1nnc(SCc2cc([N+](=O)[O-])cc([N+](=O)[O-])c2)o1	16 µM (≈ 4.74 µg/mL)	500 µM (≈ 148 µg/mL)	500 µM (≈ 148 µg/mL)	32 µM (≈ 9.48 µg/mL)	16 µM (≈ 4.74 µg/mL)	4 µM (≈ 1.19 µg/mL)	16 µM (≈ 4.74 µg/mL)	8 µM (≈ 2.37 µg/mL)	8 µM (≈ 2.37 µg/mL)	4 µM (≈ 1.19 µg/mL)
